Measurements reported in ChEMBL document CHEMBL1833951, “Diterpenes from the Hainan soft coral Lobophytum cristatum Tixier-Durivault” (J Nat Prod, 2011).

What was measured:
HCT-116 = test: Cytotoxicity against human HCT116 cells by SRB assay; assay type: functional, cell-based
A549 = test: Cytotoxicity against human A549 cells by MTT assay; assay type: functional, cell-based

## C=C(CCC=C(C)C)[C@H]1CC[C@]2(C)CCCC(=C)[C@H]2C1 [LOBOPHYTUMIN C]
HCT-116
  IC50: 37.1 µM
A549
  IC50: 35.7 µM

## C=C(CCC=C(C)C)[C@H]1CC[C@@]2(C)CCC=C(C)[C@@H]2C1 [LOBOPHYTUMIN D]
HCT-116
  IC50: 35.7 µM
A549
  IC50: 36.7 µM

## COC(=O)Nc1nc2cc(C(=O)c3cccs3)ccc2[nH]1 [NOCODAZOLE]
HCT-116
  IC50: 0.173 µM
A549
  IC50: 0.087 µM
